Data on 26 molecules can be found in patent US20110028495A1, “THE USE OF 6-HALOGENO-[1,2,4]-TRIAZOLO-[1,5-a]-PYRIMIDINE COMPOUNDS FOR COMBATING PESTS IN AND ON ANIMALS” (priority 2007, published 2011).

For assay [1], the system named is Cat flea (Ctenocephalides felis). Briefly: Ingestion assay with Ctenocephalides felis (treated cow blood). The conditions noted are these: po, adult C. felis fed treated cow blood, 72 hours post treatment, read-out: EC50 (mortality of C. felis). As for the experimental part: B.5 Activity Against Cat Flea (Ctenocephalides felis)
B.5.1 Ingestion Assay with Ctenocephalides felis
The compounds were formulated in 100% DMSO and were diluted with fresh cow blood to final testing concentrations of 50 ppm, 12.5 ppm, 3.125 ppm, 0.78 ppm and 0.195 ppm. Ten adult C. felis were loaded into testing cages and exposed to blood containing the test compound for up to 72 hours. Blood was changed at 24 hour intervals until the test was completed and kept at 37° C. for duration of the test. The efficacy of a compound was determined based on mortality of C. felis at 72 hours post treatment.

Another assay has as its system Caenorhabditis elegans. Put plainly: Activity against Caenorhabditis elegans (L1 larval motility). The conditions noted are these: L1 C. elegans, dose response assay, read-out: EC50 (reduction in motility of L1 larvae). As for the experimental part:
B.2 Activity Against Caenorhabditis elegans
The compounds were formulated in 100% DMSO and were tested in microtiter plates containing 50 μl nematode growth media, 1% E. coli and 20 L1 C. elegans. The efficacy of a compound was determined based on the motility of the larvae as compared to average motility of control wells containing DMSO only. Compounds with >80% reduction in motility were tested in a dose response assay to determine EC50 values.

The test system of assay [2] is Mediterranean fruitfly (Ceratitis capitata). Briefly: Activity against Mediterranean fruitfly (eggs/hatched larvae, microtiter plate). Conditions: 144 h, eggs sprayed, 6 days, compared to 0% mortality of untreated controls. On the procedure: B.1 Activity Against Mediterranean Fruitfly (Ceratitis capitata)
The compounds were formulated in 1:3 DMSO:water. 50 to 80 eggs were placed into microtiterplates filled with 0.5% agar-agar and 14% diet in water. The eggs were sprayed with 5 μl of the test solution, the plates were sealed with pierced foils and kept at 27-29° C. and 75-85% humidity under fluorescent light for 6 days. Mortality was assessed on the basis of the agility of the hatched larvae. Tests were replicated 2 times.

Another assay deals with cat fleas. Briefly: Efficacy against fleas in dogs (spot-on). The format is in vivo, cat fleas on dogs. Conditions: 20 mg/kg, days 9, 16 and 23, compared to the placebo group. The text has this: (§1) B.7 Study to Evaluate Efficacy of Compounds Against Fleas and Ticks in Dogs
(§2) Dogs were infested with 100 cat fleas on days −1, 8, 15, 22, 29, and 36, and 50 brown dog ticks on days −1, 7 14, 21, 28, and 35. Infested dogs receive a treatment of a compound or placebo in the form of spot-on applied at the middle of the neck between the shoulder blades. Live fleas and ticks were removed and counted on days 2, 9, 16, 23, 30, and 37.

Another assay deals with brown dog ticks. Briefly: Efficacy against ticks in dogs (spot-on). The format is in vivo, brown dog ticks on dogs. Conditions: 20 mg/kg, days 9, 16 and 23, compared to the placebo group.
Source text: as §1, §2

Assay [3] has as its system Yellowfever mosquito (Aedes aegypti). Briefly: Activity against yellowfever mosquito (neonate larval motility). Conditions: neonate A. aegypti larvae, dose response assay. On the procedure:
B.4. Activity Against Yellowfever Mosquito (Aedes aegypti)
The compounds were formulated in 100% DMSO and were tested in microtiter plates containing 180 ul X Luria Broth media and 10 neonate A. aegypti larvae. The efficacy of a compound was determined based on the motility of the larvae as compared to average motility of control wells containing DMSO only. Compounds with >80% reduction in motility were tested in a dose response assay to determine EC50 values.

What is called EC50 is the midpoint of the concentration-response curve. Broadly, the mortality is the percentage killed. Low readings indicate a weak lethal effect, high ones a strong lethal effect.

Consider `CCc1nc2ncnn2c(NC2CCC(C(C)CC)CC2)c1Cl` (stereo not shown) [C.I.18], for which the LC50 in assay [1] was below 50 µg/mL.

Regarding `Cc1nc2ncnn2c(NCc2ccc(Oc3ccc(Br)cc3)cc2)c1Cl` [C.I.11], the EC50 with Caenorhabditis elegans is below 10 µg/mL. For the same molecule, in assay [1], the LC50 was below 50 µg/mL. In the case of `Cc1nc2ncnn2c(NC(C)c2ccc(OC(F)(F)CF)cc2)c1Cl` (racemic) [C.I.38], the mortality at 2500 ppm in assay [2] was above 75%. Moreover, in assay [1], the LC50 is below 50 µg/mL. For the molecule `CCc1nc2ncnn2c(N[C@H]2CC[C@@H](C(F)(C(F)(F)F)C(F)(F)F)CC2)c1Cl` [C.I.46], the EC50 in the assay with Caenorhabditis elegans is below 10 µg/mL. Same read-out and setting: the same measure for `CCc1nc2nc([S+](C)[O-])nn2c(N[C@@H](C)c2ccc(C)cc2)c1Cl` (stereo partly shown) [C.I.56]: below 10 µg/mL. As for `CCc1nc2ncnn2c(NC2CCC(C(C)C)CC2)c1Cl` (stereo not shown) [C.I.17], the LC50 in assay [1] is below 50 µg/mL. Take `CCc1nc2ncnn2c(N[C@@H](C)c2ccc(Br)cc2)c1Cl` [C.I.23]: the EC50 with Caenorhabditis elegans was below 10 µg/mL. For `Cc1nc2ncnn2c(N[C@@H](C)c2ccc3ccccc3c2)c1Cl` [C.I.37], in assay [1], the LC50 is below 50 µg/mL. `Cc1nc2ncnn2c(NC2CCC(C(C)C)CC2)c1Cl` (stereo not shown) [C.I.2]: in the assay on Caenorhabditis elegans, the half-maximal effective concentration (EC50) was below 10 µg/mL. Regarding `CCc1nc2ncnn2c(NC(CC)c2ccc(OC(F)(F)C(F)C(F)(F)F)cc2)c1Cl` (stereo not shown) [C.I.53], in assay [2], the mortality at 2500 ppm was above 75%.

As to `Cc1nc2ncnn2c(NCc2ccc(Oc3ccc(Cl)c(Cl)c3)cc2)c1Cl` [C.I.12], the EC50 in the assay on Caenorhabditis elegans was below 10 µg/mL. Still for that read-out and setting: the same measure for `CCc1nc2ncnn2c(NCCc2ccc(OC(F)(F)F)cc2)c1Cl` [C.I.32]: below 10 µg/mL. The molecule `CCc1nc2ncnn2c(N[C@@H](C)c2ccc(Cl)cc2)c1Cl` [C.I.22] had a mortality at 2500 ppm in assay [2] above 75%. Consider `CCc1nc2ncnn2c(N[C@H]2CC[C@@H](C(C)(C)C)CC2)c1Cl` [C.I.20], for which, in assay [1], the LC50 is below 50 µg/mL. Moreover, the efficacy against fleas in the assay with cat fleas is above 80%. In the assay on brown dog ticks, this molecule returned an efficacy against ticks above 80%. As to `CCc1nc2ncnn2c(NC(C)c2ccc(OC(F)(F)CF)cc2)c1Cl` (racemic) [C.I.49], the mortality at 2500 ppm in assay [2] was above 75%. For the molecule `CCC(C)[C@H]1CC[C@@H](Nc2c(Cl)c(C)nc3ncnn23)CC1` (stereo partly shown) [C.I.5], the LC50 in assay [1] is below 50 µg/mL. `Cc1nc2ncnn2c(NC2CCC(C)CC2)c1Cl` (stereo not shown) [C.I.1]: the EC50 in the assay with Caenorhabditis elegans is below 10 µg/mL. Turning to `CCc1nc2ncnn2c(N[C@@H](C)c2ccc(OC(F)F)cc2)c1Cl` [C.I.31], the “EC50 (reduction in motility of larvae)” value in assay [3] is below 1 ppm. Moreover, the LC50 in assay [1] was below 50 µg/mL. With `Cc1nc2ncnn2c(NCc2ccc(Oc3ccc(Cl)cc3)cc2)c1Cl` [C.I.10], in the assay on Caenorhabditis elegans, the 50% effective concentration (EC50) was below 10 µg/mL. The LC50 in assay [1] is below 50 µg/mL. As to `Cc1nc2ncnn2c(N[C@@H](C)c2ccc(OC(F)(F)C(F)F)cc2)c1Cl` [C.I.40], the EC50 with Caenorhabditis elegans was below 10 µg/mL. Same read-out and setting: the same measure for `CCc1nc2ncnn2c(N[C@H]2CC[C@@H](CCC(F)(F)F)CC2)c1Cl` [C.I.45]: below 10 µg/mL. Turning to `CCC(Nc1c(Cl)c(C)nc2ncnn12)c1ccc(OC(F)(F)C(F)C(F)(F)F)cc1` (stereo not shown) [C.I.43], the mortality at 2500 ppm in assay [2] is above 75%. Further, the EC50 with Caenorhabditis elegans is below 10 µg/mL. The molecule `CCc1nc2nc(C)nn2c(N[C@H]2CC[C@@H](C(C)(C)C)CC2)c1Cl` [C.I.55] yielded a mortality at 2500 ppm in assay [2] above 75%. As for `CCc1nc2ncnn2c(N[C@@H](C)c2cccc(OCc3ccccc3)c2)c1Cl` [C.I.58], the EC50 with Caenorhabditis elegans is below 10 µg/mL.

Turning to `Cc1nc2ncnn2c(N[C@H]2CC[C@@H](C(F)(C(F)(F)F)C(F)(F)F)CC2)c1Cl` [C.I.34], in the assay with Caenorhabditis elegans, the EC50 was below 10 µg/mL. The LC50 in assay [1] was below 50 µg/mL. With `CCc1nc2ncnn2c(NC(C)c2ccc(-c3ccccc3)cc2)c1Cl` (racemic) [C.I.59], the EC50 in the assay on Caenorhabditis elegans was below 10 µg/mL.
